# According to patent US20070049593A1 (priority 2004, published 2007):
# Counter-ions that a name gives are not always drawn.
# Molecular target: T1, HCV polymerase (Hepatitis C virus genotype 1b, UniProt P26663)
# T1 construct: a region encoding NS5B (J Virol 1991 March, 65(3), 1105-13, 544 amino acids after deletion of 47 amino acids on the C-terminal); 6xHis (C); made in house; host or cells: Escherichia coli
# Test: biochemical
# Design: species or system HCV BK strain
# Outline: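 Recombinant HCV BK-strain NS5B (C-terminal 47 aa deleted, His6-tagged, E. coli), 0.5 μg/ml, run with 5 μg/ml in vitro-transcribed RNA template (polyU/3′X), ATP/GTP/CTP 50 μM, UTP 2 μM plus [3H]UTP, pH 7.5, 25° C, 90 min. TCA-precipitated RNA counted by scintillation; IC50 from activity with vs without compound.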
# T1 sequence (P26663 2420-2963): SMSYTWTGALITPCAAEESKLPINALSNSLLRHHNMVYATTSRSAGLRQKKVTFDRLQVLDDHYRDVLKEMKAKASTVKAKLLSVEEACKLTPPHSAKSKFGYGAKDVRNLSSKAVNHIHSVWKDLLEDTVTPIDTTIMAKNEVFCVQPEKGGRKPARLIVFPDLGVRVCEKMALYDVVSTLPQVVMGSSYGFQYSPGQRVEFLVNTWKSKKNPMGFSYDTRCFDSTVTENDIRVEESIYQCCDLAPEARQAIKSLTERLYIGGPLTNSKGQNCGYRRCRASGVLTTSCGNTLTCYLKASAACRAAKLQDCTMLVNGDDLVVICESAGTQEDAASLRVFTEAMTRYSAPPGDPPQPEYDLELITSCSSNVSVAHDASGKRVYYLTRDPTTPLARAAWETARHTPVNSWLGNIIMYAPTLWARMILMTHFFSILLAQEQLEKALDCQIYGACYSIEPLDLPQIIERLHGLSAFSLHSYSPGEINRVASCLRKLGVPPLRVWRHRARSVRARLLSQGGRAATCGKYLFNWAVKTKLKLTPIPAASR
row,Compound,IC50
1,"O=C(O)c1ccc2c(C3CCCCC3)c3n(c2c1)CCN(CCN1CCCCCC1)c1ccccc1-3 [Example 1-83, 5-[2-(azepan-1-yl)ethyl]-13-cyclohexyl-6,7-dihydro-5H-benzo[5,6][1,4]diazepino[7,1-a]indole-10-carboxylic acid dihydrochloride]",< 100 nM
2,"CCN1CCN(C(=O)CN2CCn3c(c(C4CCCCC4)c4ccc(C(=O)NC)cc43)-c3ccccc32)CC1 [Example 1-84, 13-cyclohexyl-5-[2-(4-ethylpiperazin-1-yl)-2-oxoethyl]-N-methyl-6,7-dihydro-5H-benzo[5,6][1,4]diazepino[7,1-a]indole-10-carboxamide]",< 100 nM
3,"CCN1CCN(C(=O)CN2CCn3c(c(C4CCCCC4)c4ccc(C(=O)NCCO)cc43)-c3ccccc32)CC1 [Example 1-85, 13-cyclohexyl-5-[2-(4-ethylpiperazin-1-yl)-2-oxoethyl]-N-(2-hydroxyethyl)-6,7-dihydro-5H-benzo[5,6][1,4]diazepino[7,1-a]indole-10-carboxamide]",< 100 nM
4,"CCN1CCN(C(=O)CN2CCn3c(c(C4CCCCC4)c4ccc(C(=O)NC(C)(C)CO)cc43)-c3ccccc32)CC1 [Example 1-86, 13-cyclohexyl-5-[2-(4-ethylpiperazin-1-yl)-2-oxoethyl]-N-(2-hydroxy-1,1-dimethylethyl)-6,7-dihydro-5H-benzo[5,6][1,4]diazepino[7,1-a]indole-10-carboxamide]",100 to 1000 nM
5,"CN(C)C(=O)N1CCN(CCN2CCn3c(c(C4CCCCC4)c4ccc(C(=O)O)cc43)-c3ccccc32)CC1 [Example 1-87, 13-cyclohexyl-5-[2-(4-dimethylcarbamoylpiperazin-1-yl)ethyl]-6,7-dihydro-5H-benzo[5,6][1,4]diazepino[7,1-a]indole-10-carboxylic acid dihydrochloride]",< 100 nM
6,"O=C(O)c1ccc2c(C3CCCCC3)c3n(c2c1)CCN(CCN1CCN(C(=O)c2ccccc2)CC1)c1ccccc1-3 [Example 1-88, 5-[2-(4-benzoylpiperazin-1-yl)ethyl]-13-cyclohexyl-6,7-dihydro-5H-benzo[5,6][1,4]diazepino[7,1-a]indole-10-carboxylic acid dihydrochloride]",< 100 nM
7,"CC(C)(C)OC(=O)N1CCC(CCN2CCn3c(c(C4CCCCC4)c4ccc(C(=O)O)cc43)-c3ccccc32)CC1 [Example 1-89, 5-[2-(1-tert-butoxycarbonylpiperidin-4-yl)ethyl]-13-cyclohexyl-6,7-dihydro-5H-benzo[5,6][1,4]diazepino[7,1-a]indole-10-carboxylic acid]",< 100 nM
8,"O=C(O)c1ccc2c(C3CCCCC3)c3n(c2c1)CCN(CCN1CCCC1=O)c1ccccc1-3 [Example 1-90, 13-cyclohexyl-5-[2-(2-oxopyrrolidin-1-yl)ethyl]-6,7-dihydro-5H-benzo[5,6][1,4]diazepino[7,1-a]indole-10-carboxylic acid monohydrochloride]",< 100 nM
9,"CS(=O)(=O)N1CCN(CCN2CCn3c(c(C4CCCCC4)c4ccc(C(=O)O)cc43)-c3ccccc32)CC1 [Example 1-91, 13-cyclohexyl-5-[2-(4-methanesulfonylpiperazin-1-yl)ethyl]-6,7-dihydro-5H-benzo[5,6][1,4]diazepino[7,1-a]indole-10-carboxylic acid dihydrochloride]",< 100 nM
10,"CC(=O)N1CCC(CCN2CCn3c(c(C4CCCCC4)c4ccc(C(=O)O)cc43)-c3ccccc32)CC1 [Example 1-92, 5-[2-(1-acetylpiperidin-4-yl)ethyl]-13-cyclohexyl-6,7-dihydro-5H-benzo[5,6][1,4]diazepino[7,1-a]indole-10-carboxylic acid monohydrochloride]",< 100 nM
11,"CCN1CCC(CCN2CCn3c(c(C4CCCCC4)c4ccc(C(=O)O)cc43)-c3ccccc32)CC1 [Example 1-93, 13-cyclohexyl-5-[2-(1-ethylpiperidin-4-yl)ethyl]-6,7-dihydro-5H-benzo[5,6][1,4]diazepino[7,1-a]indole-10-carboxylic acid dihydrochloride]",< 100 nM
12,"CS(=O)(=O)N1CCC(CCN2CCn3c(c(C4CCCCC4)c4ccc(C(=O)O)cc43)-c3ccccc32)CC1 [Example 1-94, 13-cyclohexyl-5-[2-(1-methanesulfonylpiperidin-4-yl)ethyl]-6,7-dihydro-5H-benzo[5,6][1,4]diazepino[7,1-a]indole-10-carboxylic acid monohydrochloride]",< 100 nM
13,"CC(C)(C)OC(=O)N1CCN(CCN2CCn3c(c(C4CCCCC4)c4ccc(C(=O)O)cc43)-c3ccccc32)CC1 [Example 1-95, 5-[2-(4-tert-butoxycarbonylpiperazin-1-yl)ethyl]-13-cyclohexyl-6,7-dihydro-5H-benzo[5,6][1,4]diazepino[7,1-a]indole-10-carboxylic acid dihydrochloride]",< 100 nM
14,"CCN1CCN(C(=O)CN2CCn3c(c(C4CCCCC4)c4ccc(-c5nn[nH]n5)cc43)-c3ccccc32)CC1 [Example 1-96, 2-[13-cyclohexyl-10-(2H-tetrazol-5-yl)-6,7-dihydrobenzo[5,6][1,4]diazepino[7,1-a]indol-5-yl]-1-(4-ethylpiperazin-1-yl)ethanone]",< 100 nM
15,"CCOC(=O)N1CCN(CCN2CCn3c(c(C4CCCCC4)c4ccc(C(=O)O)cc43)-c3ccccc32)CC1 [Example 1-97, 13-cyclohexyl-5-[2-(4-ethoxycarbonylpiperazin-1-yl)ethyl]-6,7-dihydro-5H-benzo[5,6][1,4]diazepino[7,1-a]indole-10-carboxylic acid dihydrochloride]",< 100 nM
16,"CC(=O)N1CCN(CCN2CCn3c(c(C4CCCCC4)c4ccc(C(=O)O)cc43)-c3ccccc32)CC1 [Example 1-98, 5-[2-(4-acetylpiperazin-1-yl)ethyl]-13-cyclohexyl-6,7-dihydro-5H-benzo[5,6][1,4]diazepino[7,1-a]indole-10-carboxylic acid dihydrochloride]",< 100 nM
17,"CN(C)CCN1CCn2c(c(C3CCCCC3)c3ccc(C(=O)O)cc32)-c2ccccc21 [Example 1-99, 13-cyclohexyl-5-(2-dimethylaminoethyl)-6,7-dihydro-5H-benzo[5,6][1,4]diazepino[7,1-a]indole-10-carboxylic acid dihydrochloride]",< 100 nM
18,"O=C(O)c1ccc2c(C3CCCCC3)c3n(c2c1)CCNc1cc(OCc2cc(N4CCCC4=O)ccc2N2CCOCC2)ccc1-3 [Example 1-100, 13-cyclohexyl-3-[2-(morpholin-4-yl)-5-(2-oxopyrrolidin-1-yl)benzyloxy]-6,7-dihydro-5H-benzo[5,6][1,4]diazepino[7,1-a]indole-10-carboxylic acid dihydrochloride]",< 100 nM
19,"CS(=O)(=O)c1ccc(N2CCOCC2)c(COc2ccc3c(c2)NCCn2c-3c(C3CCCCC3)c3ccc(C(=O)O)cc32)c1 [Example 1-101, 13-cyclohexyl-3-[5-methanesulfonyl-2-(morpholin-4-yl)benzyloxy]-6,7-dihydro-5H-benzo[5,6][1,4]diazepino[7,1-a]indole-10-carboxylic acid dihydrochloride]",< 100 nM
20,"CCN1CCN(C(=O)CN2CCn3c(c(C4CCCCC4)c4ccc(C(=O)NC(C)=O)cc43)-c3ccccc32)CC1 [Example 1-102, N-acetyl-13-cyclohexyl-5-[2-(4-ethylpiperazin-1-yl)-2-oxoethyl]-6,7-dihydro-5H-benzo[5,6][1,4]diazepino[7,1-a]indole-10-carboxamide]",< 100 nM
21,"CN1CCn2c(c(C3CCCCC3)c3ccc(C(=O)O)cc32)-c2ccc(OCc3cc(S(C)(=O)=O)ccc3N3CCOCC3)cc21 [Example 1-103, 13-cyclohexyl-3-[5-methanesulfonyl-2-(morpholin-4-yl)benzyloxy]-5-methyl-6,7-dihydro-5H-benzo[5,6][1,4]diazepino[7,1-a]indole-10-carboxylic acid dihydrochloride]",< 100 nM
22,"COC(=O)N1CCN(CCN2CCn3c(c(C4CCCCC4)c4ccc(C(=O)O)cc43)-c3ccccc32)CC1 [Example 1-104, 13-cyclohexyl-5-[2-(4-methoxycarbonylpiperazin-1-yl)ethyl]-6,7-dihydro-5H-benzo[5,6][1,4]diazepino[7,1-a]indole-10-carboxylic acid dihydrochloride]",< 100 nM
23,"O=C(O)c1ccc2c(C3CCCCC3)c3n(c2c1)CCN(CCCOC1CCCCO1)c1ccccc1-3 (stereo not drawn) [Example 1-105, 13-cyclohexyl-5-[3-(tetrahydropyran-2-yloxy)propyl]-6,7-dihydro-5H-benzo[5,6][1,4]diazepino[7,1-a]indole-10-carboxylic acid]",< 100 nM
24,"O=C(O)c1ccc2c(C3CCCCC3)c3n(c2c1)CCN(CC(=O)N1CCCC(O)C1)c1ccccc1-3 (stereo not drawn) [Example 1-106, 13-cyclohexyl-5-[2-(3-hydroxypiperidin-1-yl)-2-oxoethyl]-6,7-dihydro-5H-benzo[5,6][1,4]diazepino[7,1-a]indole-10-carboxylic acid monohydrochloride]",< 100 nM
25,"O=C(O)c1ccc2c(C3CCCCC3)c3n(c2c1)CCN(CCN1CCOCC1)c1cc(F)ccc1-3 [Example 1-107, 13-cyclohexyl-3-fluoro-5-[2-(morpholin-4-yl)ethyl]-6,7-dihydro-5H-benzo[5,6][1,4]diazepino[7,1-a]indole-10-carboxylic acid dihydrochloride]",< 100 nM
26,"Cc1ccc2c(c1)N(CCN1CCCCC1)CCn1c-2c(C2CCCCC2)c2ccc(C(=O)O)cc21 [Example 1-108, 13-cyclohexyl-3-methyl-5-[2-(piperidin-1-yl)ethyl]-6,7-dihydro-5H-benzo[5,6][1,4]diazepino[7,1-a]indole-10-carboxylic acid dihydrochloride]",< 100 nM
27,"O=C(O)c1ccc2c(C3CCCCC3)c3n(c2c1)CCN(CC(=O)N1CCOCC1)c1cc(F)ccc1-3 [Example 1-109, 13-cyclohexyl-3-fluoro-5-[2-(morpholin-4-yl)-2-oxoethyl]-6,7-dihydro-5H-benzo[5,6][1,4]diazepino[7,1-a]indole-10-carboxylic acid monohydrochloride]",< 100 nM
